Measurements from ChEMBL document CHEMBL1143330, “Preliminary investigations on the synthesis and antitumor activity of 3(2H)-furanones” (Bioorg Med Chem Lett, 2009).
The source made the active and inactive calls. The rule behind the calls is not given here.

Experiments:
DLA [1] = experiment: Antitumor activity in mouse DLA cells xenografted Swiss albino mouse assessed as inhibition of tumor cell proliferation at 1 mg/kg, po administered after 7 days of tumor induction measured each 3 days upto 31 days; type: functional, organism-based; parameters: dose 1 mg/kg
DLA [2] = experiment: Antiproliferative activity against mouse DLA cells assessed as radiolabeled thymidine incorporation at 10 to 200 ug after 24 hrs by liquid scintillation counter; type: functional, cell-based

| SMILES | Activity (DLA [1]) | Activity (DLA [2]) |
| --- | --- | --- |
| COC1(c2ccccc2)OC(c2ccccc2)=C(c2ccccc2)C1=O (centres undefined) | Active | Active |
| CC(=O)OC1(c2ccccc2)OC(c2ccccc2)=C(c2ccccc2)C1=O (centres undefined) | Active | Active |
